Laboratory results: US20050175535A1 (CV Therapeutics, Inc., priority 2000, published 2005)
Where two headings read alike, the source gives them in different places.

Legend:
[1] = biological target: T1, A2A adenosine receptors (PC12 cells) (Rattus norvegicus, UniProt P30543); test: cAMP accumulation in PC12 cells
Protocol: Effects of adenosine receptor agonists on cAMP content in intact PC12 cells. […] Cyclic AMP levels were determined as described under “Methods”. Values represent mean±SEM of results of triplicate samples from three experiments. […] Values represent mean±SEM of triplicate determinants from one representative experiment.
Briefly, PC12 cells were rinsed three times with Hanks' balanced saline solution (HBSS), detached using a cell lifter, and pelleted by centrifugation at 500 g for 5 minutes. Aliquots of the cell suspension (0.1 to 0.2 mg protein) were placed in microfuge tubes with 250 μL of HBSS containing rolipram (50 μmol/L) to inhibit phosphodiesterases that degrade cAMP_and warmed to 37° C. Appropriate drugs were added to the cell suspensions, and incubations were allowed to continue for 10 minutes. Tubes were placed in a boiling water bath for 5 minutes to terminate the incubation. The samples were then cooled to room temperature, diluted by the addition of 1 mL of 10 mmol/L Tris-HCl buffer at pH 7.4, and then centrifuged for 2 minutes at 13000 g.
The samples were then incubated at 4° C. for 16 hours. At the end of the incubation, 70 μL of a 50% (wt/vol) hydroxyapatite suspension was added to each tube. The suspensions were gently agitated and then incubated for 10 minutes at 4° C. Antibody-bound radioactivity adsorbed to hydroxyapatite was collected onto glass fiber filters by vacuum filtration using a Brandel cell harvester. Radioactivity retained by the filter was counted in a gamma counter. […] The amount of cAMP present in samples was calculated based on a standard curve using known amounts of cAMP.

[2] = tested on: rat isolated perfused heart; test: Reversal time of coronary vasodilation in rat isolated perfused hearts; details: bolus, rat isolated perfused heart;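 note: each agonist bolused at its minimal concentration giving equal maximal coronary conductance rise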
Protocol: FIG. 10. Reversal of effect of agonist stimulation on CC. […] CC was measured at 8, 16 and 24 minutes after administration (FIG. 10A). […] R and N are the correlation coefficient and number of agonists, respectively.
The relationship between the affinity of agonists for the A2A receptor and the rate of reversal of agonist-mediated responses (coronary vasodilation in heart and cAMP accumulation in PC12 cells) upon termination of drug administration were determined. […] The duration of the coronary vasodilation in isolated rat hearts caused by adenosine, the CVT compounds, and other agonists measured as the time to 50% and 90% (t0.5 and t0.9, respectively) reversal of the increases in coronary conductance after termination of drug administration are summarized in Table 4.

[3] = biological target: T1, A2A adenosine receptors (PC12 cells); test: Rate of decline of agonist-stimulated cAMP in PC12 cells after A2A antagonist SCH58261; details: agonist 1 μM, after addition of SCH58261 (20 μM)
[4] = tested on: rat isolated perfused heart; test: Coronary conductance / coronary perfusion pressure in isolated perfused rat hearts; details: Rattus norvegicus
Protocol: Briefly, rats of either sex weighing 230-260 grams were anesthetized by intraperitoneal injection of a mixture of ketamine (100 mg/ml) and xylazine (20 mg/ml). The chest of each rat was opened and the heart removed, and rinsed in ice-cold modified Krebs-Henseleit (K-H) solution containing NaCl 117.9, KCl 4.5, CaCl2 2.5, MgSO4 1.18, KH2PO4 1.18, pyruvate 2.0 mmo/L. The aorta was cannulated and the heart was perfused at a flow rate of 10 ml/min with modified K-H solution. The K-H solution (pH 7.4) was gassed continuously with 95% O2 and 5% CO2 and warmed to 35±0.5° C. The heart was electrically paced at a fixed cycle length of 240 ms (250 beats/min) using a bipolar electrode placed in the left atrium. The electrical stimuli were generated by a Grass stimulator (Model S48, W. Warwick, R.I.) and delivered through a Stimuli Isolation Unit (Model SIU5, Astro-Med, Inc., NY) as square-wave pulses of 3-msec in duration and with an amplitude of at least twice the threshold intensity.
The identity of the adenosine receptor subtype (A1 or A2A) mediating the coronary vasodilation was determined.
Coronary perfusion pressure (CPP) was measured using a pressure transducer that was connected to the aortic cannula via a T-connector positioned approximately 3 cm above the heart. CPP was monitored throughout an experiment and recorded either on a chart recorder (Gould Recorder 2200S, Valley View, Ohio) or a computerized recording system (PowerLab/4S, ADInstruments Pty Ltd, Australia). Only hearts with CPP ranging from 60 to 85 mmHg (in the absence of drugs) were used in the study. CC conductance (in ml/min/mmHg) was calculated as the ratio between coronary perfusion rate (10 ml/min) and CPP.

[5] = biological target: human A2A adenosine receptors (Homo sapiens, UniProt P29274); test: Competitive radioligand binding, [3H]ZM241385, HEK-hA2AAdoR membranes; details: HEK-hA2AAdoR
Protocol: Each point represents the mean±SEM of triplicates pooled from at least three experiments.
ZM241385 was purchased from Tocris Cookson Ltd (Langford, Bristol, UK).
Competitive radiolabeling binding assays were performed to determine the binding affinities of the compounds of the invention for the adenosine receptor subtypes, A1, A2A, A2B and A3. Briefly, membrane suspensions, obtained from cells expressing either adenosine receptor subtypes A1, A2A, A2B or A3were incubated for 2 hours at room temperature in 50 mmol/L Tris-HCl buffer (pH 7.4) containing ADA (1U/mL). […] At the end of the incubation, free radioligand was separated from membrane-bound radioligand by filtration through Whatman GF/C glass fiber filters using a Brandel tissue harvester (Gaithersburg, Md.). Triplicate determinations were performed for each concentration of unlabelled compound.

[6] = biological target: A2A adenosine receptors (Rattus norvegicus, UniProt P30543); test: Competitive radioligand binding, [3H]ZM241385, PC12 cell membranes; details: PC12 cells (A2A)
Protocol: Rat pheochromocytoma PC12 cells were obtained from the American Type Culture Collection and grown in DMEM with 5% fetal bovine serum, 10% horse serum, 0.5 mmol/L L-glutamine, 100 U/mL penicillin, 0.1 mg/l mL streptomycin, and 2.5 μg/mL amphotericin.
Cell membranes were harvested from the cell lines by detaching cells from the culture plates into ice-cold 50 mmol/L Tris-HCl buffer (pH 7.4). The cell suspensions were homogenized and centrifuged at 48,000g for 15 minutes. The pellets were washed three times by re-suspension in ice-cold Tris-HCl buffer and centrifugation. The final pellet was re-suspended in Tris-HCl, aliquoted and frozen at −80° C. until used for receptor binding assays.
Briefly, membrane suspensions, obtained from cells expressing either adenosine receptor subtypes A1, A2A, A2B or A3were incubated for 2 hours at room temperature in 50 mmol/L Tris-HCl buffer (pH 7.4) containing ADA (1U/mL). […] At the end of the incubation, free radioligand was separated from membrane-bound radioligand by filtration through Whatman GF/C glass fiber filters using a Brandel tissue harvester (Gaithersburg, Md.). Triplicate determinations were performed for each concentration of unlabelled compound.

[7] = biological target: T2, human A1 adenosine receptors (Homo sapiens, UniProt P30542); test: Competitive radioligand binding, [3H]CPX, CHO-hA1AdoR membranes; details: [3H]CPX
T2 construct: expressed in transfected cells
T2 sequence (P30542 1-326): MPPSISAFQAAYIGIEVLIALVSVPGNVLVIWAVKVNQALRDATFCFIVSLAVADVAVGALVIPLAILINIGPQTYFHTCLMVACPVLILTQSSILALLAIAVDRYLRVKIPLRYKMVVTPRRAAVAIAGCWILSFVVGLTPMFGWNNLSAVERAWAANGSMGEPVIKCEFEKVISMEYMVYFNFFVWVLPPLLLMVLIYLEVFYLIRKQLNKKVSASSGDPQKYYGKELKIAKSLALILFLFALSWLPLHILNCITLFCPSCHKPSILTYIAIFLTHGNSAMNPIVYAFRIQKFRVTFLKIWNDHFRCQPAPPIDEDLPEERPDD
Protocol: The cell suspensions were homogenized and centrifuged at 48,000g for 15 minutes. The pellets were washed three times by re-suspension in ice-cold Tris-HCl buffer and centrifugation. The final pellet was re-suspended in Tris-HCl, aliquoted and frozen at −80° C. until used for receptor binding assays.

[8] = biological target: A2A adenosine receptors (Sus scrofa, UniProt K9IW67); test: Competitive radioligand binding, [3H]ZM241385, pig striatum membranes
Protocol: Membranes were also obtained from porcine striatial cells as follows. […] The homogenate was filtered through cotton gauze and centrifuged at 48,000g for 15 minutes at 4° C. […] The final pellet was frozen at −80° C. until used for receptor binding assays.

[9] = Coronary blood flow and reversal time, intracoronary infusion in open-chest anesthetized pigs; format: in vivo
Protocol: The magnitude of the effect of A2A adenosine receptor agonists on coronary dilation and the duration of the effect was determined in pigs weighing 22-27 kg. […] In addition, animals were used in accordance with the guidelines of the University of Kentucky Institutional Animal Care and Use Protocol.
Anesthesia was maintained with additional sodium pentobarbital (1.5-2 mg/kg, i.v.) every 15-20 minutes. Animals were ventilated via a tracheotomy tube using a mixture of room air and 100% O2. Tidal volume, respiratory rate and fraction of O2 in inspired air were adjusted to maintain arterial blood gas (ABG) and pH values. […] Lactate Ringers solution was administered via an ear or femoral vein as an initial bolus of 300-400 ml followed by a continuous infusion at a rate of 5-7 ml/kg/hr. A catheter was inserted into the femoral artery to monitor arterial blood pressure.
The heart was exposed through a median sternotomy and suspended in a pericardial cradle. Left ventricular pressure (LVP) was measured with a 5F high fidelity pressure sensitive tip transducer (Millar Instruments, Houston, Tex.) placed in the left ventricular cavity via an apical incision and secured with a purse string suture. A segment of the left anterior descending coronary artery (LAD), proximal to the origin of the first diagonal branch, was dissected free of surrounding tissue. A transit time perivascular flow probe (Transonic Systems Inc., Ithaca, N.Y.) was placed around this segment to measure CBF. Proximal to the flow probe, a 24-gauge modified angiocatheter was inserted for intracoronary infusions. […] The A2A adenosine receptors agonists were administered intracoronary.
Relationship between affinity of various agonists for A2A adenosine receptor and the reversal time of their effect to increase coronary conductance was determined in pigs. Each experiment was preceded by a 30-minute stabilization period following the completion of all instrumentation of the animal. Baseline hemodynamic data were then recorded and an intracoronary infusion of an A2A Adenosine receptors agonist was initiated. Each infusion was maintained for 4-5 minutes to allow LAD CBF to reach a steady-state, after which the infusion was terminated. The times to recovery of CBF by 50% (t0.5) and 90% (t0.9) of the difference from peak effect to baseline CBF were recorded. Ten to 15 minutes after CBF returned to pre-drug values a second infusion with a different agonist was started. […] Hemodynamic measurements were made prior to and following the initiation of the phenylephrine infusion. The phenylephrine infusion rate was adjusted during and following the infusions of the adenosine receptor agonists to maintain arterial blood pressure within 5 mmHg of pre-infusion values. The effect of a maximum of three different agonists was determined in each experiment.

[10] = read-out: EC50, Coronary Conductance (Rat Isolated Heart)
[11] = read-out: pEC50 ± SEM, Coronary Conductance (Rat Isolated Heart) (converted)
[12] = read-out: pKi ± SEM, CHO-hA1AdoR (converted)
[13] = [3H]ZM241385, Gpp(NH)p present, read-out: Ki, Pig Strialum (A2A)

Chain of human A2A adenosine receptors (P29274 whole entry): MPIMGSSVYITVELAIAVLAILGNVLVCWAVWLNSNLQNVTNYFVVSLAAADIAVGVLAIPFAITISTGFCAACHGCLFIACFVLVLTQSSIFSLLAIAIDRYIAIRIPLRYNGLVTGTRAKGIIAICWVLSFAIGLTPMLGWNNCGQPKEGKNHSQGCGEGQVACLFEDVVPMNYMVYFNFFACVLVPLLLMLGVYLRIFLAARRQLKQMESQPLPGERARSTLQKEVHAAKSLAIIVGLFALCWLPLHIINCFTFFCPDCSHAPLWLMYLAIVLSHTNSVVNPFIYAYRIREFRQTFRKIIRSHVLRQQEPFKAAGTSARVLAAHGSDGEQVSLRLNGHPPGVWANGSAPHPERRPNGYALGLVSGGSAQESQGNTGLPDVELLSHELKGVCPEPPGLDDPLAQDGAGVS
Chain of A2A adenosine receptors (Sus scrofa, UniProt K9IW67) (K9IW67 1-409): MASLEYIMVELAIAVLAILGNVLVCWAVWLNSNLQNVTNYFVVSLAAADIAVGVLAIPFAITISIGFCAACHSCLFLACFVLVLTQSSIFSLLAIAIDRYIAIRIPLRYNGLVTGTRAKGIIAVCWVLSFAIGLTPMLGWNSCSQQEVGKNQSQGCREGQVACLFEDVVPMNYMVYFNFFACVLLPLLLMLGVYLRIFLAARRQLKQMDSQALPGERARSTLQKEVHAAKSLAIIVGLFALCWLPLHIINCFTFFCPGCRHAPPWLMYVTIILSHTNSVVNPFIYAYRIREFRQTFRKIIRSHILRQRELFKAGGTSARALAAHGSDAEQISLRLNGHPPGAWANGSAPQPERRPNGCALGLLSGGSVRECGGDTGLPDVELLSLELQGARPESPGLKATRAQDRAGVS
Chain of A2A adenosine receptors (Rattus norvegicus, UniProt P30543) (P30543 whole entry): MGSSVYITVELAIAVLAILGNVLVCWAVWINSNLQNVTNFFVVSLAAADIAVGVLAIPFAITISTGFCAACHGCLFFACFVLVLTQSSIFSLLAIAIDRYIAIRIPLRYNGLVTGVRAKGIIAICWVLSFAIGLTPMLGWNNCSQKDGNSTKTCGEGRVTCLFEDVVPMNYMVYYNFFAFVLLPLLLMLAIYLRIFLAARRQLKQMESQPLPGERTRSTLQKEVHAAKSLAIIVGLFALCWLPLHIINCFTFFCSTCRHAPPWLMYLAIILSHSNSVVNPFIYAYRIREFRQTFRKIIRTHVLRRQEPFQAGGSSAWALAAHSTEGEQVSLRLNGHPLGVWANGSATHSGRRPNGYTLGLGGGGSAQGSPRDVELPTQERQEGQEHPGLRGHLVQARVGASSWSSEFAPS
T1 sequence (P30543 whole entry, the tested form may be a part): as the sequence (P30543 whole entry) above

For `Nc1nc(C#CCOc2ccccc2)nc2c1ncn2C1O[C@@H](CO)[C@H](O)[C@@H]1O` (stereo partly drawn) [CVT-2995], the EC50 ([1]; EC50, cAMP Accumulation (PC12 cells)) was 6.6 nM, the EC50 ([1]; pEC50 ± SEM, cAMP Accumulation (PC12 cells)) was 1.51 nM and the “t0.5, time to 50% reversal of the increase in coronary conductance” value [2] was 17.5 ± 1.2 min. For the same compound, the “t0.9, time to 90% reversal of the increase in coronary conductance” value [2] was 23.2 ± 2.1 min, the “t0.5, rate of decline of cAMP accumulated” value [3] was 3.9 ± 0.6 min and the EC50 [4, 10] was 0.68 nM. For the same compound, the EC50 [4, 11] was 0.676 nM, the Ki ([5]; Ki, [3H]ZM241385) was 0.305 µM and the Ki ([5]; pKi ± SEM, [3H]ZM241385) was 0.302 µM. It also gave a Ki ([6]; Ki, [3H]ZM241385) of 53 nM, a Ki ([7]; read-out: Ki, CHO-hA1AdoR) of 0.866 µM and a Ki [7, 12] of 0.851 µM. The Ki [8, 13] was 14.4 nM and the Ki ([8]; [3H]ZM241385, Gpp(NH)p present, read-out: pKi ± SEM, Pig Strialum (A2A) (converted)) was 13.8 nM.

In the case of `Nc1nc(-c2cnn(Cc3ccccc3)c2)nc2c1ncn2C1O[C@@H](CO)[C@H](O)[C@@H]1O` (stereo partly drawn) [CVT-3032], the EC50 [1] is reported as 613 nM, the “agonist behaviour in PC12 cells” value [1] is reported as “partial A2A agonists” and the Emax ([1]; PC-12, read-out: maximal response of cAMP accumulation, % of that induced by CGS21680) is reported as 65%. The “t0.5, time to 50% reversal of the increase in coronary conductance” value [2] was 4.1 ± 0.3 min, the “t0.9, time to 90% reversal of the increase in coronary conductance” value [2] was 9.8 ± 1.4 min and the EC50 [4, 10] was 66.5 nM. It also gave an EC50 [4, 11] of 66.1 nM, a Ki ([5]; Ki) of 13.7 µM and a Ki ([5]; pKi ± SEM) of 13.5 µM. The “CBF (fold-increase)” value ([9]; 30 ug/kg/min intracoronary) was 3.78 ± 0.70 fold, the “t0.5 reversal of increase in coronary blood flow” value ([9]; 30 ug/kg/min intracoronary) was 2.3 ± 0.6 min and the “t0.9 reversal of increase in coronary blood flow” value ([9]; 30 ug/kg/min intracoronary) was 9.6 ± 1.0 min. It also gave a Ki ([6]; Ki) of 5520 nM, a Ki ([7]; read-out: Ki, CHO-hA1AdoR) of 6.35 µM and a Ki [7, 12] of 6.03 µM. It also gave a Ki [8, 13] of 1590 nM.

For `Nc1nc(N/N=C/C2CCCCC2)nc2c1ncn2[C@@H]1O[C@H](CO)[C@@H](O)[C@H]1O` [WRC0470, 2-cyclohexylmethylidenehydrazinoadenosine, reference compound], the EC50 [4, 10] was 0.62 nM, the EC50 [4, 11] was 0.646 nM and the “t0.5 reversal of increase in coronary blood flow” value ([9]; 1 ug/kg/min intracoronary) was 9.5 ± 0.8 min. The “t0.9 reversal of increase in coronary blood flow” value ([9]; 1 ug/kg/min intracoronary) was 22.5 ± 1.6 min, the Ki ([6]; Ki) was 18 nM and the Ki ([6]; pKi ± SEM) was 17 nM. It also gave a Ki ([7]; read-out: Ki, CHO-hA1AdoR) of 7.28 µM, a Ki [7, 12] of 6.92 µM and a Ki [8] of 20.7 nM.
